Measurements taken from patent US8192962B2, “Processes for detecting toxic substances” (Daikin Industries, Ltd., priority 2001, dated 2012).

Test system: Stress protein genes
Experiment: DNA chip mRNA expression in yeast, stress protein genes (Table 6)
Assay type: cell-based, Saccharomyces cerevisiae S288C
Method in brief: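 Untreated cultures served as reference for log-phase S288C yeast given a growth-inhibiting, non-lethal toxicant dose for 2 h at 25° C. in YPD. Gene expression was measured on a whole-genome DNA chip from Cy3/Cy5-labeled cDNA.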

Compound: C[S+](C)[O-] [(15), dimethylsulfoxide]
- The level of expressed mRNA in the presence of chemical substance/The level of expressed mRNA in the absence of chemical substance (yeast gene YAL015C): 0.7
- The level of expressed mRNA in the presence of chemical substance/The level of expressed mRNA in the absence of chemical substance (yeast gene YBR044C): 0.9
- The level of expressed mRNA in the presence of chemical substance/The level of expressed mRNA in the absence of chemical substance (yeast gene YBR054W): 0.6
- The level of expressed mRNA in the presence of chemical substance/The level of expressed mRNA in the absence of chemical substance (yeast gene YBR067C): 3.3
- The level of expressed mRNA in the presence of chemical substance/The level of expressed mRNA in the absence of chemical substance (yeast gene YBR072W): 4.9
- The level of expressed mRNA in the presence of chemical substance/The level of expressed mRNA in the absence of chemical substance (yeast gene YBR126C): 1.0
- The level of expressed mRNA in the presence of chemical substance/The level of expressed mRNA in the absence of chemical substance (yeast gene YBR169C): 1.6
- The level of expressed mRNA in the presence of chemical substance/The level of expressed mRNA in the absence of chemical substance (yeast gene YCR083W): 1.0
- The level of expressed mRNA in the presence of chemical substance/The level of expressed mRNA in the absence of chemical substance (yeast gene YDL022W): 0.9
- The level of expressed mRNA in the presence of chemical substance/The level of expressed mRNA in the absence of chemical substance (yeast gene YDL025C): 1.0
- The level of expressed mRNA in the presence of chemical substance/The level of expressed mRNA in the absence of chemical substance (yeast gene YDR033W): 0.8
- The level of expressed mRNA in the presence of chemical substance/The level of expressed mRNA in the absence of chemical substance (yeast gene YDR077W): 6.1
- The level of expressed mRNA in the presence of chemical substance/The level of expressed mRNA in the absence of chemical substance (yeast gene YDR098C): 2.2
- The level of expressed mRNA in the presence of chemical substance/The level of expressed mRNA in the absence of chemical substance (yeast gene YDR155C): 2.5
- The level of expressed mRNA in the presence of chemical substance/The level of expressed mRNA in the absence of chemical substance (yeast gene YDR258C): 0.6
- The level of expressed mRNA in the presence of chemical substance/The level of expressed mRNA in the absence of chemical substance (yeast gene YDR293C): 1.7
- The level of expressed mRNA in the presence of chemical substance/The level of expressed mRNA in the absence of chemical substance (yeast gene YDR436W): 0.8
- The level of expressed mRNA in the presence of chemical substance/The level of expressed mRNA in the absence of chemical substance (yeast gene YDR513W): 1.3
- The level of expressed mRNA in the presence of chemical substance/The level of expressed mRNA in the absence of chemical substance (yeast gene YDR519W): 2.0
- The level of expressed mRNA in the presence of chemical substance/The level of expressed mRNA in the absence of chemical substance (yeast gene YEL030W): 0.8
- The level of expressed mRNA in the presence of chemical substance/The level of expressed mRNA in the absence of chemical substance (yeast gene YEL039C): 0.4
- The level of expressed mRNA in the presence of chemical substance/The level of expressed mRNA in the absence of chemical substance (yeast gene YER042W): 1.0
- The level of expressed mRNA in the presence of chemical substance/The level of expressed mRNA in the absence of chemical substance (yeast gene YER057C): 1.7
- The level of expressed mRNA in the presence of chemical substance/The level of expressed mRNA in the absence of chemical substance (yeast gene YER125W): 0.8
- The level of expressed mRNA in the presence of chemical substance/The level of expressed mRNA in the absence of chemical substance (yeast gene YFL014W): 6.3
- The level of expressed mRNA in the presence of chemical substance/The level of expressed mRNA in the absence of chemical substance (yeast gene YFL016C): 0.8
- The level of expressed mRNA in the presence of chemical substance/The level of expressed mRNA in the absence of chemical substance (yeast gene YFL020C): 1.4
- The level of expressed mRNA in the presence of chemical substance/The level of expressed mRNA in the absence of chemical substance (yeast gene YFR052W): 1.4
- The level of expressed mRNA in the presence of chemical substance/The level of expressed mRNA in the absence of chemical substance (yeast gene YGL073W): 0.9
- The level of expressed mRNA in the presence of chemical substance/The level of expressed mRNA in the absence of chemical substance (yeast gene YGL115W): 0.7
- The level of expressed mRNA in the presence of chemical substance/The level of expressed mRNA in the absence of chemical substance (yeast gene YGL181W): 1.5
- The level of expressed mRNA in the presence of chemical substance/The level of expressed mRNA in the absence of chemical substance (yeast gene YGR088W): 0.7
- The level of expressed mRNA in the presence of chemical substance/The level of expressed mRNA in the absence of chemical substance (yeast gene YHL028W): 0.6
- The level of expressed mRNA in the presence of chemical substance/The level of expressed mRNA in the absence of chemical substance (yeast gene YHL046C): 1.0
- The level of expressed mRNA in the presence of chemical substance/The level of expressed mRNA in the absence of chemical substance (yeast gene YHR057C): 1.2
- The level of expressed mRNA in the presence of chemical substance/The level of expressed mRNA in the absence of chemical substance (yeast gene YHR104W): 1.6
- The level of expressed mRNA in the presence of chemical substance/The level of expressed mRNA in the absence of chemical substance (yeast gene YIL011W): 0.9
- The level of expressed mRNA in the presence of chemical substance/The level of expressed mRNA in the absence of chemical substance (yeast gene YIL033C): 1.0
- The level of expressed mRNA in the presence of chemical substance/The level of expressed mRNA in the absence of chemical substance (yeast gene YIR037W): 1.0
- The level of expressed mRNA in the presence of chemical substance/The level of expressed mRNA in the absence of chemical substance (yeast gene YIR038C): 1.2
- The level of expressed mRNA in the presence of chemical substance/The level of expressed mRNA in the absence of chemical substance (yeast gene YJL128C): 1.2
- The level of expressed mRNA in the presence of chemical substance/The level of expressed mRNA in the absence of chemical substance (yeast gene YJL158C): 1.7
- The level of expressed mRNA in the presence of chemical substance/The level of expressed mRNA in the absence of chemical substance (yeast gene YJL165C): 1.0
- The level of expressed mRNA in the presence of chemical substance/The level of expressed mRNA in the absence of chemical substance (yeast gene YJR045C): 2.3
- The level of expressed mRNA in the presence of chemical substance/The level of expressed mRNA in the absence of chemical substance (yeast gene YJR090C): 1.6
- The level of expressed mRNA in the presence of chemical substance/The level of expressed mRNA in the absence of chemical substance (yeast gene YKL161C): 1.3
- The level of expressed mRNA in the presence of chemical substance/The level of expressed mRNA in the absence of chemical substance (yeast gene YKL164C): 1.2
- The level of expressed mRNA in the presence of chemical substance/The level of expressed mRNA in the absence of chemical substance (yeast gene YKL210W): 1.0
- The level of expressed mRNA in the presence of chemical substance/The level of expressed mRNA in the absence of chemical substance (yeast gene YKR053C): 0.3
- The level of expressed mRNA in the presence of chemical substance/The level of expressed mRNA in the absence of chemical substance (yeast gene YLL024C): 1.3
- The level of expressed mRNA in the presence of chemical substance/The level of expressed mRNA in the absence of chemical substance (yeast gene YLL026W): 0.9
- The level of expressed mRNA in the presence of chemical substance/The level of expressed mRNA in the absence of chemical substance (yeast gene YLL060C): 1.5
- The level of expressed mRNA in the presence of chemical substance/The level of expressed mRNA in the absence of chemical substance (yeast gene YLR006C): 0.9
- The level of expressed mRNA in the presence of chemical substance/The level of expressed mRNA in the absence of chemical substance (yeast gene YLR109W): 3.9
- The level of expressed mRNA in the presence of chemical substance/The level of expressed mRNA in the absence of chemical substance (yeast gene YML007W): 1.0
- The level of expressed mRNA in the presence of chemical substance/The level of expressed mRNA in the absence of chemical substance (yeast gene YML070W): 0.9
- The level of expressed mRNA in the presence of chemical substance/The level of expressed mRNA in the absence of chemical substance (yeast gene YMR021C): 1.0
- The level of expressed mRNA in the presence of chemical substance/The level of expressed mRNA in the absence of chemical substance (yeast gene YMR173W): 2.5
- The level of expressed mRNA in the presence of chemical substance/The level of expressed mRNA in the absence of chemical substance (yeast gene YMR186W): 1.3
- The level of expressed mRNA in the presence of chemical substance/The level of expressed mRNA in the absence of chemical substance (yeast gene YNL064C): 0.7
- The level of expressed mRNA in the presence of chemical substance/The level of expressed mRNA in the absence of chemical substance (yeast gene YNL160W): 0.7
- The level of expressed mRNA in the presence of chemical substance/The level of expressed mRNA in the absence of chemical substance (yeast gene YNR076W): 1.1
- The level of expressed mRNA in the presence of chemical substance/The level of expressed mRNA in the absence of chemical substance (yeast gene YOL064C): 1.0
- The level of expressed mRNA in the presence of chemical substance/The level of expressed mRNA in the absence of chemical substance (yeast gene YOL161C): 1.1
- The level of expressed mRNA in the presence of chemical substance/The level of expressed mRNA in the absence of chemical substance (yeast gene YOR008C): 0.9
- The level of expressed mRNA in the presence of chemical substance/The level of expressed mRNA in the absence of chemical substance (yeast gene YOR009W): 0.6
- The level of expressed mRNA in the presence of chemical substance/The level of expressed mRNA in the absence of chemical substance (yeast gene YOR010C): 0.6
- The level of expressed mRNA in the presence of chemical substance/The level of expressed mRNA in the absence of chemical substance (yeast gene YOR027W): 1.4
- The level of expressed mRNA in the presence of chemical substance/The level of expressed mRNA in the absence of chemical substance (yeast gene YPL059W): 1.0
- The level of expressed mRNA in the presence of chemical substance/The level of expressed mRNA in the absence of chemical substance (yeast gene YPL106C): 1.1
- The level of expressed mRNA in the presence of chemical substance/The level of expressed mRNA in the absence of chemical substance (yeast gene YPL140C): 0.7
- The level of expressed mRNA in the presence of chemical substance/The level of expressed mRNA in the absence of chemical substance (yeast gene YPL194W): 1.4
- The level of expressed mRNA in the presence of chemical substance/The level of expressed mRNA in the absence of chemical substance (yeast gene YPL223C): 1.5
- The level of expressed mRNA in the presence of chemical substance/The level of expressed mRNA in the absence of chemical substance (yeast gene YPL240C): 1.2
- The level of expressed mRNA in the presence of chemical substance/The level of expressed mRNA in the absence of chemical substance (yeast gene YPR005C): 2.7
